Here are results for five molecules from patent US20130267532A1, “CYCLIC AMIDE COMPOUNDS AND THEIR USE IN THE TREATMENT OF DISEASE” (priority 2010, published 2013).

One assay deals with T1, Recombinant human TLR7 (Homo sapiens, UniProt Q9NYK1).
T1 construct: expressed in transfected cells; host or cells: HEK293 cell line stably expressing the pNiFty2-SEAP reporter plasmid
T1 sequence (Q9NYK1 27-1049): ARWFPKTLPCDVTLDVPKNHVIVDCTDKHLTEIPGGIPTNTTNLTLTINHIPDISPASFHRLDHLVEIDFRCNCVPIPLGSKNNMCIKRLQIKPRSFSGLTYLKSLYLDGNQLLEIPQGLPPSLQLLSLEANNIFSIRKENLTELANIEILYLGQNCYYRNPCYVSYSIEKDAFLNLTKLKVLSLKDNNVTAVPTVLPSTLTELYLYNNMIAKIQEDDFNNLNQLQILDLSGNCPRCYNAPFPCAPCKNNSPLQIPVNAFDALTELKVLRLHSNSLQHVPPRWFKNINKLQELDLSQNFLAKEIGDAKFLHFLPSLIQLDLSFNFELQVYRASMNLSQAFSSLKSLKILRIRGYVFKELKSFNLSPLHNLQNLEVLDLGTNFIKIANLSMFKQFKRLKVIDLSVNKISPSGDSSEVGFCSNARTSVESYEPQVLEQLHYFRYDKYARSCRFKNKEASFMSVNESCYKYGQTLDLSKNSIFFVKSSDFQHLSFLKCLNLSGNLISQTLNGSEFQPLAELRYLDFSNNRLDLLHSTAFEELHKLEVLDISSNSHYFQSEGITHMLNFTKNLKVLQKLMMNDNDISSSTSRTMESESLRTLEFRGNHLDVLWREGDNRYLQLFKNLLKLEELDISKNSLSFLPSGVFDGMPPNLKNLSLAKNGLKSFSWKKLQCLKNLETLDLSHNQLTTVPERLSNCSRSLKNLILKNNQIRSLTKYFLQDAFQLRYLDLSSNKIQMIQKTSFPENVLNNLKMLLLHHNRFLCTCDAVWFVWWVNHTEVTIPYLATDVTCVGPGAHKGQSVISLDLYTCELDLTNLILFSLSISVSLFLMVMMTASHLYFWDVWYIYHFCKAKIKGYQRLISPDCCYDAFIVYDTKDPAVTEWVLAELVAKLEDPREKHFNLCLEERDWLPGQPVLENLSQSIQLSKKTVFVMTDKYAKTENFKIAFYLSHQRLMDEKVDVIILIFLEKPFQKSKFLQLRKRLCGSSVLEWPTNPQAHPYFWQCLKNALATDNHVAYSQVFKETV
The assay is described as follows: Human TLR7 assay (SEAP reporter in HEK293 cells). In kind it is cell-based. As to conditions: TLR7 activation, SEAP induction, overnight incubation at 37° C., 0.1% DMSO. Here is the method: The ability of compounds to activate TLR7 in vitro was assessed using the human TLR7 assay described below.
Recombinant human TLR7 was stably expressed in a HEK293 cell line already stably expressing the pNiFty2-SEAP reporter plasmid; integration of the reporter gene was maintained by selection with the antibiotic zeocin. The most common variant sequence of human TLR7 (represented by the EMBL sequence AF240467) was cloned into the mammalian cell expression vector pUNO and transfected into this reporter cell-line. Transfectants with stable expression were selected using the antibiotic blasticidin. In this reporter cell-line, expression of secreted alkaline phosphatase (SEAP) is controlled by an NF-κB/ELAM-1 composite promoter comprising five NF-κB sites combined with the proximal ELAM-1 promoter. TLR signaling leads to the translocation of NF-κB and activation of the promoter results in expression of the SEAP gene. TLR7-specific activation was assessed by determining the level of SEAP produced following overnight incubation of the cells at 37° C. with the standard compound in the presence of 0.1% (v/v) dimethylsulfoxide (DMSO). Concentration dependent induction of SEAP production by compounds was expressed as the concentration of compound which produced half of the maximal level of SEAP induction for that compound (EC50).

Another assay addresses T2, full-length human TLR8 (Homo sapiens, UniProt Q9NR97).
T2 construct: a stably co-transfected cell line which expresses full-length human TLR8; host or cells: TLR8/NF-κB/SEAPorter HEK 293 Cell Line
T2 sequence (Q9NR97 27-1041): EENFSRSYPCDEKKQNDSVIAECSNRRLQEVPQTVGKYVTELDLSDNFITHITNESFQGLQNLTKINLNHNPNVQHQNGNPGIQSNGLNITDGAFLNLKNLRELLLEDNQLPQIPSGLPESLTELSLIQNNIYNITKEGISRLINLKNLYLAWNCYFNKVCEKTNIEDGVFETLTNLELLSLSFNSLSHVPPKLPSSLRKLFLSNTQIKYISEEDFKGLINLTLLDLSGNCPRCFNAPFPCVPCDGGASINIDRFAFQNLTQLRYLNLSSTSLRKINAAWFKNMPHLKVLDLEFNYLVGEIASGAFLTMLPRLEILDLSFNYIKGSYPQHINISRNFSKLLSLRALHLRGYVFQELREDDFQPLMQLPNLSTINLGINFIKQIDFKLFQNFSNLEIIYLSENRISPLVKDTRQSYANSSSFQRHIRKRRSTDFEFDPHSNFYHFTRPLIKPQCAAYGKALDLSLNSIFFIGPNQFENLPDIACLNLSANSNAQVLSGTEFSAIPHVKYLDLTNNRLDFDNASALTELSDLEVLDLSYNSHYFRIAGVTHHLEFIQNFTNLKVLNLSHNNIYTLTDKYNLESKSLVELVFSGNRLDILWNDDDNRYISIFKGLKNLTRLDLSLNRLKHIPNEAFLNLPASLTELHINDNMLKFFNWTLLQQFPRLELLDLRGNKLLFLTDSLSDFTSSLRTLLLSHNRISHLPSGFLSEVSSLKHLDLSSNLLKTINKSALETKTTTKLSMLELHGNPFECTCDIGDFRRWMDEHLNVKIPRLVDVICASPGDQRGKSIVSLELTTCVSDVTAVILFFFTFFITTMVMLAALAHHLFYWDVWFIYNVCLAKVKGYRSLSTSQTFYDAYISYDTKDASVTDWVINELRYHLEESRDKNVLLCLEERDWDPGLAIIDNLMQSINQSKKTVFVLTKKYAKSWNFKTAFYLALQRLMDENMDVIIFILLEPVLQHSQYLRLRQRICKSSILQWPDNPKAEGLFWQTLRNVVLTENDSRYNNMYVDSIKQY
The assay is described as follows: Human TLR8 assay (TLR8/NF-κB/SEAPorter HEK 293 cell line). In kind it is cell-based. As to conditions: TLR8 activation, SEAP induction, HEK 293 reporter cells, overnight incubation at 37° C., 0.1% DMSO. From the text:
TLR8/NF-κB/SEAPorter™ HEK 293 Cell Line (Imgenex Corporation) is a stably co-transfected cell line which expresses full-length human TLR8 and the secreted alkaline phosphatase (SEAP) reporter gene under the transcriptional control of an NF-κB response element. TLR8 expression in this cell line has been tested by flow cytometry. Transfectants with stable expression were selected using the antibiotic blasticidin and geneticin. TLR signaling leads to the translocation of NF-κB and activation of the promoter results in expression of the SEAP gene. TLR8-specific activation was assessed by determining the level of SEAP produced following overnight incubation of the cells at 37° C. with the standard compound in the presence of 0.1% (v/v) dimethylsulfoxide (DMSO). Concentration dependent induction of SEAP production by compounds was expressed as the concentration of compound which produced half of the maximal level of SEAP induction for that compound (EC50).

In the case of `CCCCNc1nc(N)nc(C)c1Cc1ccc(N2CCN(C)CC2=O)cc1OC` [Example 1, 1-(4-{[2-Amino-4-(butylamino)-6-methylpyrimidin-5-yl]methyl}-3-methoxyphenyl)-4-methylpiperazin-2-one], the figures for the half-maximal effective concentration (EC50) at Recombinant human TLR7 and on full-length human TLR8 were 63.1 nM and over 10000 nM, respectively.
The like results for `CCCCCNc1nc(N)nc(C)c1Cc1ccc(N2CCN(C)CC2=O)cc1OC` [Example 2, 1-(4-{[2-Amino-4-methyl-6-(pentylamino)pyrimidin-5-yl]methyl}-3-methoxyphenyl)-4-methylpiperazin-2-one] were, in that order, 63.1 nM and over 10000 nM.
Consider `CCC[C@@H](CCO)Nc1nc(N)nc(C)c1Cc1ccc(N2CCN(C)CC2=O)cc1OC` [Example 3, (S)-1-(4-{[2-Amino-4-(1-hydroxyhexan-3-ylamino)-6-methylpyrimidin-5-yl]methyl}-3-methoxyphenyl)-4-methylpiperazin-2-one], for which the EC50 on Recombinant human TLR7 is 25.1 nM; on full-length human TLR8, 6310 nM.
The like results for `CCC[C@@H](CO)Nc1nc(N)nc(C)c1Cc1ccc(N2CCN(C)CC2=O)cc1OC` [Example 4, (S)-1-(4-{[2-Amino-4-(1-hydroxypentan-2-ylamino)-6-methylpyrimidin-5-yl]methyl}-3-methoxyphenyl)-4-methylpiperazin-2-one] were, in that order, 200 nM and 5010 nM.
The like results for `CCC[C@@H](CCO)Nc1nc(N)nc(C)c1Cc1ccc(N2CCNCC2=O)cc1OC` [Example 5, (S)-1-(4-{[2-Amino-4-(1-hydroxyhexan-3-ylamino)-6-methylpyrimidin-5-yl]methyl}-3-methoxyphenyl)piperazin-2-one] were, in that order, 126 nM and over 10000 nM.
